Data as given in article PMC4013357 (The Journal of Veterinary Medical Science, 2013).

Target: T1, rBboDHODH (Babesia bovis dihydroorotate dehydrogenase) (Babesia bovis, UniProt A7AUQ8)
T1 sequence (A7AUQ8 1-415): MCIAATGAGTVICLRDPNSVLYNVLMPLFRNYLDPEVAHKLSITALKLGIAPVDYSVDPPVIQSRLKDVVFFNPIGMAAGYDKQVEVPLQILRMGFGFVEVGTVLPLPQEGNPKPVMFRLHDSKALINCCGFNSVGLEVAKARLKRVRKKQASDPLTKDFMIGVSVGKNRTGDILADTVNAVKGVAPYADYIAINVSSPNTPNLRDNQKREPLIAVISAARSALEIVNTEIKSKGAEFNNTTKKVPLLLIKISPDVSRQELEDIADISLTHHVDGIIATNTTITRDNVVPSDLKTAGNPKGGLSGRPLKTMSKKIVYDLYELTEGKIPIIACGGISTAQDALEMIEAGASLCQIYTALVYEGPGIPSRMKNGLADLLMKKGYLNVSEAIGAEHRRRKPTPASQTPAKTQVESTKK
Test: biochemical
Settings: read-out: Relative activity (%)

Structure (SMILES) | activity at 1 µM | activity at 1000 µM
O=C1C(O)=C([C@H]2CC[C@H](c3ccc(Cl)cc3)CC2)C(=O)c2ccccc21 [ATV, atovaquone] | 19.1% | 
Cc1oncc1C(=O)Nc1ccc(C(F)(F)F)cc1 [LFN, leflunomide] |  | 51.6%
